This passage reports half-life, microsomal CLint and IC50 results from patent publication US12297171B2, “EP2 antagonist compounds” (Reservoir Neuroscience, Inc., priority 2021, dated 2025).

A short description of series [1]: Human liver microsome stability. Format: in vitro ADME. To be noted: human liver microsomes 0.5 mg/mL, 37° C., 60 minutes; for half-life at 2 μM: read-out: T1/2 (microsomal); for microsomal CLint at 2 μM: read-out: in vitro CLint (microsomal). The method, then: The tested compound was incubated in duplicate with human liver microsomes (0.5 mg/mL) at 37° C. These incubations were carried out at a final test article concentration of 2 μM over a total incubation period of 60 minutes. Samples were taken at 0, 15, 30, 45 and 60 min and the reaction terminated by addition of 4 volumes of acetonitrile containing internal standard (100 nM alprazolam, 200 nM imipramine, 200 nM labetalol and 2 μM ketoprofen). Diclofenac was used as a positive control in this study. The samples were analyzed by UPLC-MS/MS to determine the concentration of the test compound and the percent remaining, intrinsic clearance (in vitro CLint) and half-life (t1/2) values were calculated.
(§1) Chromatographic analyses were performed on a Shimadzu UPLC apparatus (Kyoto, Japan) consisting of a gradient pump (model LC-30AD), an automatic injector (model HTC PAL System) and an on-line degasser (model DGU-20A5R). Detection was a triple quadrupole tandem mass spectrometer equipped with a turbo ion spray interface (API 4000/Triple Quad 4500/Triple Quad 5500/Triple Quad 6500). Data acquisition and integration were carried out with LC-MS software (Analyst 1.6) linked directly to the LC-MS/MS system. Chromatographic separations were achieved on a XSelect Hss T3 2.5μ (2.1×30 mm) Column. The mobile phase was 0.1% formic acid in water (A) and 0.1% formic acid in acetonitrile (B). The flow rate was 1.0 mL/min and column was maintained at 40° C.
(§2) Half-life (T1/2) data is measured in minutes, and in Table B2, in both microsomal and hepatic assays, the data is grouped into categories of: • A T1/2=1000+ • B T1/2=500 to 1000 • C T1/2=100 to 500 • D T1/2<100
(§3) In vitro clearance (CLint) data is measured in μL/min/mg prot, and in Table B2, in both microsomal and hepatic assays, the data is grouped into categories of: • A CLint<1 • B CLint=1 to 10 • C CLint=10 to 20 • D CLint=20+

Series [2] is described as follows: Human hepatocyte stability. To be noted: human hepatocytes 0.5×10^6 cells/mL, 120 minutes; for half-life at 1 μM: read-out: T1/2 (hepatic); for microsomal CLint at 1 μM: read-out: in vitro CLint (hepatic). The series is classed as in vitro ADME. The method, then: The tested compound was incubated in duplicate with incubation media (Williams' Medium E with 1× GlutaMAX) containing human hepatocytes (0.5×10^6 cells/mL). These incubations were carried out at a final test concentration of 1 μM over a total incubation period of 120 minutes. Samples were taken at 0, 15, 30, 60, 90 and 120 min and the reaction was terminated by addition of acetonitrile containing internal standard (100 nM alprazolam, 200 nM labetalol, 200 nM caffeine and 200 nM diclofenac). Verapamil was used as the positive control in this study. The samples were analyzed by UPLC-MS/MS to determine the concentration of the tested compound and the percentage remaining, intrinsic clearance (in vitro CLint) and half-life (t1/2) values were calculated.
as §1, §2, §3

For the next series, the target named is T1, EP2 receptor (Homo sapiens, UniProt P43116).
T1 construct: expressed in transfected cells; host or cells: CHO-K1 cells (ATCC), transiently transfected with FuGENE 6
As to the kind of experiment: EP2 potency assay (cAMP TR-FRET, LANCE Ultra cAMP kit, antagonism of prostaglandin E2 at EC80). Format: cell-based. To be noted: CHO-K1 cells transfected with EP2 receptor. Here is the method:
Compound potency was measured using a cAMP TR-FRET assay.
CHO-K1 cells (ATCC) were seeded at a density of 9.75×10^5 in 6 cm plates, and then on the following day cell media was changed to Opti-Mem I reduced serum media (Gibco), and transfected with a plasmid for expression of the EP2 receptor (the target receptor of interest), using the FuGENE 6 Transfection reagent (Promega). After 6 hours incubation, the cell media was replaced with F12 medium supplemented with 10% FBS and 100 U/ml Pen-Strep. 24 hours after transfection, cells were harvested and seeded at a density of 3000 cells/well in a 384 well plate to perform the cAMP assay, using the LANCE Ultra cAMP assay kit (PerkinElmer).
For each test compound of interest, 10 nl/well of serially diluted test compound was added to each well, resulting in a range of 10 serially diluted compound concentrations from 10000 nM to 0.038 nM, with duplicate wells for each concentration. Plates were then centrifuged at 1000 rpm for 1 min, agitated at 600 rpm at R.T. for 2 min, and incubated at 25° C. for 5 min. The reference agonist, prostaglandin E2 (MCE), was added to each well at the appropriate concentration to reach its EC80 value. Plates were then centrifuged at 1000 rpm for 1 min, agitated at 600 rpm at R.T. for 2 min, and incubated at 25° C. for 30 min.
To measure levels of cAMP, 5 μl/well of Eu-cAMP working solution and 5 μl/well of Ulight-anti-cAMP working solution were added to each well, and plate was centrifuged at 1000 rpm for 1 min, agitated at 600 rpm at R.T. for 2 min, and incubated at 25° C. for 15 min. Levels of TR-FRET fluorescence were measured in each well using an EnVision microplate reader (excitation wavelength=337 nm and emission wavelength=615 and 665 nm). A dose-response curve was prepared by plotting percent inhibition for each compound concentration, and then IC50 was calculated by fitting a curve to the plotted values and extrapolating the IC50 concentration.
Potency data is grouped into categories of AA (IC50<100 nM); A (IC50=100 to 500 nM); B (IC50=500 nM to 1 μM); C (IC50=1 μM to 5 μM); and D (IC50>5 μM).
On the technique in general: Time-resolved FRET reads energy transfer from a long-lived donor to a nearby acceptor.

T1 sequence (P43116 whole entry): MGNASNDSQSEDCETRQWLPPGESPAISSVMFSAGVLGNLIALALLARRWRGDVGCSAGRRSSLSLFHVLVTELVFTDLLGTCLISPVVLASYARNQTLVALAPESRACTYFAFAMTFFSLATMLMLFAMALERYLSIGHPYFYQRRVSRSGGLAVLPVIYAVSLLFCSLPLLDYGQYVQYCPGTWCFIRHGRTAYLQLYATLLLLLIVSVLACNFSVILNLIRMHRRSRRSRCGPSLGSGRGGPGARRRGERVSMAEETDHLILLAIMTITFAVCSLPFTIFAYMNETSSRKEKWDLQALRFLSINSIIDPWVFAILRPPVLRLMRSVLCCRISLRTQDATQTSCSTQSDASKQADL

Take `COc1ccc2cc(OCC3(C#N)CN(C(=O)c4ccc(F)cc4)C3)ccc2c1` [Compound 1-3, 1-(4-fluorobenzoyl)-3-(((6-methoxynaphthalen-2-yl)oxy)methyl)azetidine-3-carbonitrile]: in series [1], the half-life at 2 μM was below 1.67 h and the microsomal CLint at 2 μM is above 20 µL/min/mg.

Consider `COc1ccc2cc(OCC3(n4nn[nH]c4=O)CN(C(=O)c4ccc(F)cc4)C3)ccc2c1` [Compound 1-2, 1-(1-(4-fluorobenzoyl)-3-(((6-methoxynaphthalen-2-yl)oxy)methyl)azetidin-3-yl)-1,4-dihydro-5H-tetrazol-5-one], for which, in series [1], the half-life at 2 μM lay in the range of 1.67 to 8.33 h and the microsomal CLint at 2 μM was in the range of 1 to 10 µL/min/mg.

Take `COc1ccc(C(=O)N2CCC(C#N)(COc3ccc(-c4ccc(C#N)cc4)cc3)C2)cc1` (racemic) [Compound 2-3, 3-(((4′-cyano-[1,1′-biphenyl]-4-yl)oxy)methyl)-1-(4-methoxybenzoyl)pyrrolidine-3-carbonitrile]: in series [1], the half-life at 2 μM was below 1.67 h and the microsomal CLint at 2 μM was above 20 µL/min/mg.

The IC50 is the point on the concentration scale where inhibition reaches its midpoint. The low end stands for greater potency, the high end for weaker potency. Take `COc1ccc(C(=O)N2CCC(COc3ccc(-c4ccc(C#N)cc4)cc3)(C(=O)NS(=O)(=O)C(F)(F)F)C2)cc1` (centres unmarked) [Compound 4-24, 3-[({4′-cyano-[1,1′-biphenyl]-4-yl}oxy)methyl]-1-(4-methoxybenzoyl)-N-trifluoromethanesulfonylpyrrolidine-3-carboxamide]: in series [2], the half-life at 1 μM lay in the range of 8.33 to 16.7 h and the microsomal CLint at 1 μM lay in the range of 1 to 10 µL/min/mg. Besides, the concentration for half-maximal inhibition (IC50) against EP2 receptor fell in the range of 0.1 to 0.5 µM. In series [1], the half-life at 2 μM lay within 1.67 to 8.33 h and the microsomal CLint at 2 μM was 1 to 10 µL/min/mg.

`COc1ccc(C(=O)N2CCC(COc3ccc(-c4ccc(C#N)cc4)cc3)(n3nn[nH]c3=O)C2)cc1` (racemic) [Compound 2-2, 4′-((1-(4-methoxybenzoyl)-3-(5-oxo-4,5-dihydro-1H-tetrazol-1-yl)pyrrolidin-3-yl)methoxy)-[1,1′-biphenyl]-4-carbonitrile]: the IC50 against EP2 receptor lay within 0.5 to 1 µM. Besides, in series [1], the half-life at 2 μM was in the range of 8.33 to 16.7 h and the microsomal CLint at 2 μM lay within 1 to 10 µL/min/mg.

Turning to `COc1ccc(C(=O)N2CCC(COc3ccc(-c4ccc(C#N)cc4)cc3)(C(=O)O)C2)cc1` (centres unmarked) [Ref, reference compound], in series [2], the half-life at 1 μM was in the range of 1.67 to 8.33 h and the microsomal CLint at 1 μM fell in the range of 1 to 10 µL/min/mg. Further, in series [1], the half-life at 2 μM lay within 8.33 to 16.7 h and the microsomal CLint at 2 μM was 1 to 10 µL/min/mg.

Turning to `COc1ccc(C(=O)N2CCC(COc3ccc(-c4ccc(C#N)cc4)cc3)(C(=O)NS(C)(=O)=O)C2)cc1` (centres unmarked) [Compound 4-19, 3-(((4′-cyano-[1,1′-biphenyl]-4-yl)oxy)methyl)-1-(4-methoxybenzoyl)-N-(methylsulfonyl)pyrrolidine-3-carboxamide], in series [2], the half-life at 1 μM was above 16.7 h and the microsomal CLint at 1 μM was below 1 µL/min/mg. At EP2 receptor, this molecule came in with an IC50 below 0.1 µM. Moreover, in series [1], the half-life at 2 μM was above 16.7 h and the microsomal CLint at 2 μM is below 1 µL/min/mg.

For the molecule `COc1ccc(C(=O)N2CCC(COc3ccc(-c4ccc(C#N)cc4)cc3)(C(=O)NS(=O)(=O)C3CC3)C2)cc1` (centres unmarked) [Compound 4-30, 3-[({4′-cyano-[1,1′-biphenyl]-4-yl}oxy)methyl]-N-(cyclopropanesulfonyl)-1-(4-methoxybenzoyl)pyrrolidine-3-carboxamide], the IC50 against EP2 receptor lay in the range of 1 to 5 µM.

In turn, `COc1ccc(C(=O)N2CCC(COc3ccc(-c4ccc(C#N)cc4)cc3)(C(=O)NS(=O)(=O)C(C)(C)C)C2)cc1` (centres unmarked) [Compound 4-29, 3-[({4′-cyano-[1,1′-biphenyl]-4-yl}oxy)methyl]-1-(4-methoxybenzoyl)-N-(2-methylpropane-2-sulfonyl)pyrrolidine-3-carboxamide] returned an IC50 against EP2 receptor above 5 µM.

Molecule `CONC(=O)C1(COc2ccc(-c3ccc(C#N)cc3)cc2)CCN(C(=O)c2ccc(OC)cc2)C1` (centres unmarked) [Compound 4-23, 3-(((4′-cyano-[1,1′-biphenyl]-4-yl)oxy)methyl)-N-methoxy-1-(4-methoxybenzoyl)pyrrolidine-3-carboxamide] displayed an IC50 on EP2 receptor above 5 µM.
